Reference: patent publication US20110124692A1, “CRYSTALLINE FORMS OF THIAZOLIDINEDIONE COMPOUND AND ITS MANUFACTURING METHOD” (DAIICHI SANKYO COMPANY, LIMITED, priority 2008, published 2011)
Structures can show the parent of a compound that is named as a salt. Where two headings read alike, the source gives them in different places.

Columns and labels:
[1] = Solubility in dilute hydrochloric acid (Test Example 3); type: physicochemical; conditions: for The concentration (mg/g) of 5-(4-{[6-(4-amino-3,5-dimethylphenoxy)-1-methyl-1-H-benzimidazol-2-yl]methoxy}benzyl)-1,3-thiazolidine-2,4-dione in dilute hydrochloric acid: dilute hydrochloric acid 9.6 mg/g (pH about 0.7), 25° C., 500 mg in 5 mL, sampled after 6 minutes; for Concentration in dilute hydrochloric acid compared with the other crystalline forms: comparison of Table 7
Method: The concentration was measured under the test conditions below.
The concentration is calculated from the following formula.

[2] = molecular target: T1, peroxisome proliferator-activated receptor (PPAR) γ (Homo sapiens, UniProt P37231); conditions: as disclosed in Patent Documents 1-5; cited from earlier work
T1 sequence (P37231 1-505): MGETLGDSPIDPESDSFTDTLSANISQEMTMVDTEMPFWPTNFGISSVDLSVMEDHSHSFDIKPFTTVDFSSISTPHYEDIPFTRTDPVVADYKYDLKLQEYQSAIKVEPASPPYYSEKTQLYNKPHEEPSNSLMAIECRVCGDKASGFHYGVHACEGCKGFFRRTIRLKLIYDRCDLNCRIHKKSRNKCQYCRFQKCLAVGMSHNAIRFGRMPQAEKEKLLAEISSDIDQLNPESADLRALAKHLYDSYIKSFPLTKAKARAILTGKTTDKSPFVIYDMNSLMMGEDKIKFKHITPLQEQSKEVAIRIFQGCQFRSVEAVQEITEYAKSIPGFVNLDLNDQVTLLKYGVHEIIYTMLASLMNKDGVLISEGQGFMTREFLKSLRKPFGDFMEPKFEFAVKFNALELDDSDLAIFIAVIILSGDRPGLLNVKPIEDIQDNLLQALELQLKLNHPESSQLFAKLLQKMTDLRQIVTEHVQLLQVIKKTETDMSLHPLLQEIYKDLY

[3] = in vivo; cited from earlier work
[4] = test system: human stomach cancer cells, human breast cancer cells, small cell lung cancer, pancreas cancer cells, prostate cancer cells, kidney cancer cells …; conditions: medulloblastoma, sarcoma cells, multiple myeloma; cited from earlier work
human leukemia cells = conditions: cited from earlier work
[5] = test system: human colon cancer cell lines; conditions: against human colon cancer cell lines; cited from earlier work
cancer cells [6] = conditions: in combination with an epidermal growth factor receptor (EGFR) inhibitor; cited from earlier work
[7] = test system: human non-small-cell lung cancer; conditions: cited from earlier work
cancer cells [8] = conditions: in combination with a VEGFR inhibitor or a Raf kinase inhibitor; cited from earlier work
human kidney cancer = conditions: cited from earlier work

## Cc1cc(Oc2ccc3nc(COc4ccc(CC5SC(=O)NC5=O)cc4)n(C)c3c2)cc(C)c1N (stereo not shown) [Crystalline form manufactured according to Example (2-1)] [5-(4-{[6-(4-amino-3,5-dimethylphenoxy)-1-methyl-1-H-benzimidazol-2-yl]methoxy}benzyl)-1,3-thiazolidine-2,4-dione dihydrochloride monohydrate]
[1]; dihydrochloride monohydrate
  The concentration (mg/g) of 5-(4-{[6-(4-amino-3,5-dimethylphenoxy)-1-methyl-1-H-benzimidazol-2-yl]methoxy}benzyl)-1,3-thiazolidine-2,4-dione in dilute hydrochloric acid: 0.276 mg/g

## Cc1cc(Oc2ccc3nc(COc4ccc(CC5SC(=O)NC5=O)cc4)n(C)c3c2)cc(C)c1N (stereo not shown) [5-(4-{[6-(4-amino-3,5-dimethylphenoxy)-1-methyl-1-H-benzimidazol-2-yl]methoxy}benzyl)-1,3-thiazolidine-2,4-dione monohydrate]
[1]; monohydrate
  The concentration (mg/g) of 5-(4-{[6-(4-amino-3,5-dimethylphenoxy)-1-methyl-1-H-benzimidazol-2-yl]methoxy}benzyl)-1,3-thiazolidine-2,4-dione in dilute hydrochloric acid: 0.579 mg/g
[1]; listed as free-form crystalline form, monohydrate
  Concentration in dilute hydrochloric acid compared with the other crystalline forms: higher concentration than all the dihydrochloride monohydrate crystalline forms

## Cc1cc(Oc2ccc3nc(COc4ccc(CC5SC(=O)NC5=O)cc4)n(C)c3c2)cc(C)c1N (stereo not shown) [Compound (I), 5-(4-{[6-(4-amino-3,5-dimethylphenoxy)-1-methyl-1-H-benzimidazol-2-yl]methoxy}benzyl)-1,3-thiazolidine-2,4-dione]
[2]
  Ability to activate PPAR γ: significant ability to activate
[3]
  Activity to ameliorate insulin resistance and to reduce blood sugar: significant activity to ameliorate insulin resistance and to reduce blood sugar

## Cc1cc(Oc2ccc3nc(COc4ccc(CC5SC(=O)NC5=O)cc4)n(C)c3c2)cc(C)c1N (stereo not shown) [dihydrochloride of Compound (I), 5-(4-{[6-(4-amino-3,5-dimethylphenoxy)-1-methyl-1-H-benzimidazol-2-yl]methoxy}benzyl)-1,3-thiazolidine-2,4-dione dihydrochloride]
[4]
  Activity to inhibit the growth of cancer cells: significant activity to inhibit the growth
Human leukemia cells
  Growth inhibition of human leukemia cells: significantly inhibits the growth-inhibiting activity
[5]
  Antitumor activity in vivo: significant antitumor activity in vivo
Cancer cells [6]
  Activity to inhibit the growth of cancer cells in combination: synergistic activity to inhibit the growth of cancer cells
[7]; alone
  Antitumor activity: has antitumor activity
[7]; in combination with an EGFR inhibitor
  Antitumor activity in combination: enhanced antitumor activity
Cancer cells [8]
  Activity to inhibit the growth of cancer cells in combination: synergistic activity to inhibit the growth of cancer cells
Human kidney cancer; alone
  Antitumor activity: has antitumor activity
Human kidney cancer; in combination with a VEGFR inhibitor or a Raf kinase inhibitor
  Antitumor activity in combination: enhanced antitumor activity

## Cc1cc(Oc2ccc3nc(COc4ccc(CC5SC(=O)NC5=O)cc4)n(C)c3c2)cc(C)c1N (stereo not shown) [Crystalline form A manufactured according to Example 4] [5-(4-{[6-(4-amino-3,5-dimethylphenoxy)-1-methyl-1-H-benzimidazol-2-yl]methoxy}benzyl)-1,3-thiazolidine-2,4-dione dihydrochloride monohydrate]
[1]; dihydrochloride monohydrate
  The concentration (mg/g) of 5-(4-{[6-(4-amino-3,5-dimethylphenoxy)-1-methyl-1-H-benzimidazol-2-yl]methoxy}benzyl)-1,3-thiazolidine-2,4-dione in dilute hydrochloric acid: 0.325 mg/g
  Concentration in dilute hydrochloric acid compared with the other crystalline forms: highest concentration among the dihydrochloride monohydrate crystalline forms
